In PMC10118286 (Journal of medicinal chemistry, 2021):

Experiments:
MDA-MB-231 cells [1] = conditions: read-out: Anti-proliferative active (IC50, μM) MDA-MB-231; cell viability assay for 24 h
MDA-MB-468 cells [2] = conditions: read-out: Anti-proliferative active (IC50, μM) MDA-MB-468; cell viability assay for 24 h
BRD4 [3] = target: T1, BRD4 (Homo sapiens, UniProt O60885); assay: BRD4 inhibition assay; assay type: binding
CK2 [4] = target: T2, CK2 (Homo sapiens, UniProt P68400); assay: biochemical; conditions: read-out: Kinase inhibitory activity (1 μM, %) CK2
MDA-MB-468 cells [5] = assay: Colony formation assay, MDA-MB-468; assay type: cell-based; conditions: 0, 2.5, 5, and 10 μM for 7 days
MDA-MB-468 cells [6] = assay: Autophagy assay; assay type: cell-based; conditions: 5 μM
p-BRD4^S492 [7] = assay: Western blot of p-BRD4 S492, MDA-MB-231 cells; assay type: cell-based; conditions: 0, 2.5, 5, and 10 μM for 24 h
MCF-10A cells = assay: Cell viability; assay type: cell-based
MDA-MB-231 cells [8] = assay: Autophagy assay; assay type: cell-based; conditions: 5 μM
MDA-MB-231 xenograft = MDA-MB-231 xenograft tumor model; assay type: in vivo, nude mice (BALB/c)
CK1 = conditions: read-out: CK1 inhibitory profile (IC50); triplicate, mean ± SD
MDA-MB-468 cells [9] = assay: Annexin-V/PI flow cytometry apoptosis, MDA-MB-468; assay type: cell-based; conditions: 24 h
BRD4 [10] = target: T1, BRD4; assay: CETSA in MDA-MB-231 cells, BRD4; assay type: cell-based; conditions: 5 μM, 6 h
MDA-MB-231 cells [11] = assay: Colony formation assay, MDA-MB-231; assay type: cell-based; conditions: 0, 2.5, 5, and 10 μM for 7 days
MDA-MB-231 cells [12] = assay: Annexin-V/PI flow cytometry apoptosis, MDA-MB-231; assay type: cell-based; conditions: 24 h
MDA-MB-231R cells = assay: Antiproliferative activity toward compound 1-resistant MDA-MB-231R cells; conditions: p < 0.01
[13] = Pharmacokinetic study in SD rats; assay type: in vivo, Sprague–Dawley (SD) rats
CK2α = CK2α (Homo sapiens, UniProt P68400); assay: CETSA in MDA-MB-231 cells, CK2α; assay type: cell-based; conditions: 5 μM, 6 h
p-BRD4^S492 [14] = assay: Western blot of p-BRD4 S492, MDA-MB-468 cells; assay type: cell-based; conditions: 0, 2.5, 5, and 10 μM for 24 h
CK2 [15] = target: T2, CK2; conditions: 10 μM
[16] = 25 and 50 mg/kg, intragastric, 19 days
[17] = intragastric, once a day for 19 days

T2 sequence (P68400 whole entry): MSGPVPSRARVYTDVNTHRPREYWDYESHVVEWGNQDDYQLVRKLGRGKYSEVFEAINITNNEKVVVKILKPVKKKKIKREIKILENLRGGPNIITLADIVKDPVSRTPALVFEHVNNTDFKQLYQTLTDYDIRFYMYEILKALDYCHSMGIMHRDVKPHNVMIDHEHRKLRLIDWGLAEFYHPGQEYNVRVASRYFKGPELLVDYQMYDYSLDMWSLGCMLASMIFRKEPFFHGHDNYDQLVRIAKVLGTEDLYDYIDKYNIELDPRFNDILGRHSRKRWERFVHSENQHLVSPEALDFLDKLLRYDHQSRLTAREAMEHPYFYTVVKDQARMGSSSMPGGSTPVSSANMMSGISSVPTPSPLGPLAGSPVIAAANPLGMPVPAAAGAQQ
Sequence of CK2α (P68400 whole entry): as above

N-(3-Chloro-4-(4-methylpiperazin-1-yl)phenyl)-2-(4-(7-chloro-4-oxo-1,4-dihydroquinazolin-2-yl)phenoxy)acetamide [Compound 44m]
IC50 (MDA-MB-231 cells [1]): 5.21 ± 0.82 µM
IC50 (MDA-MB-468 cells [2]): 6.23 ± 0.55 µM

N-(3-Chloro-4-(4-methylpiperazin-1-yl)phenyl)-2-(4-(6-methoxy-4-oxo-1,4-dihydroquinazolin-2-yl)phenoxy)acetamide [Compound 44k]
IC50 (MDA-MB-231 cells [1]): 14.6 ± 0.77 µM
IC50 (MDA-MB-468 cells [2]): 16.4 ± 0.85 µM

2-(4-(5,7-Dimethoxy-4-oxo-1,4-dihydroquinazolin-2-yl)-2,6-dimethylphenoxy)-N-morpholinoacetamide [Compound 42b]
IC50 (MDA-MB-231 cells [1]): 20.6 ± 0.62 µM
IC50 (MDA-MB-468 cells [2]): 18.5 ± 1.23 µM

N-(3-Chloro-4-(4-methylpiperazin-1-yl)phenyl)-2-(4-(7-methyl-4-oxo-1,4-dihydroquinazolin-2-yl)phenoxy)acetamide [Compound 44n]
IC50 (MDA-MB-231 cells [1]): 17.4 ± 0.56 µM
IC50 (MDA-MB-468 cells [2]): 16.2 ± 1.83 µM

N-(3-Chloro-4-(4-methylpiperazin-1-yl)phenyl)-2-(4-(6-chloro-4-oxo-1,4-dihydroquinazolin-2-yl)phenoxy)acetamide [Compound 44l]
IC50 (MDA-MB-231 cells [1]): 14.4 ± 0.58 µM
IC50 (MDA-MB-468 cells [2]): 15.3 ± 0.72 µM

N-(3-Chloro-4-(4-methylpiperazin-1-yl)phenyl)-2-(4-(6-fluoro-4-oxo-1,4-dihydroquinazolin-2-yl)phenoxy)acetamide [Compound 44j]
IC50 (MDA-MB-231 cells [1]): 6.94 ± 0.68 µM
IC50 (MDA-MB-468 cells [2]): 7.51 ± 1.13 µM

Cc1sc2c(c1C)C(c1ccc(Cl)cc1)=N[C@@H](CC(=O)OC(C)(C)C)c1nnc(C)n1-2 [Compound 1, JQ1, reference compound]
inhibition at 1 µM (BRD4 [3]; read-out: Kinase inhibitory activity (1 μM, %) BRD4): 97 ± 1.32%

COc1cc(OC)c2c(=O)[nH]c(-c3cc(C)c(OCC(=O)Nc4nc5ccccc5[nH]4)c(C)c3)nc2c1 [Compound 42j, N-(1H-Benzo[d]imidazol-2-yl)-2-(4-(5,7-dimethoxy-4-oxo-1,4-dihydroquinazolin-2-yl)-2,6-dimethylphenoxy)acetamide]
inhibition at 1 µM (CK2 [4]): 25.6 ± 6.57%

6-Methoxy-2-(2-methoxyphenyl)-4H-chromen-4-one [Compound 33c]
IC50 (MDA-MB-231 cells [1]): > 50 µM
IC50 (MDA-MB-468 cells [2]): > 50 µM

COc1cc(OC)c2c(=O)[nH]c(-c3ccc(OCC(=O)Nc4ccc(N5CCN(C)CC5)c(Cl)c4)cc3)nc2c1 [Compound 44e, N-(3-Chloro-4-(4-methylpiperazin-1-yl)phenyl)-2-(4-(5,7-dimethoxy-4-oxo-1,4-dihydroquinazolin-2-yl)phenoxy)acetamide]
tumor growth inhibition (in words) (MDA-MB-468 xenograft; [16]): dose-dependent tumor growth inhibition
HE staining of heart, liver, spleen, lung, and kidney tissues (MDA-MB-468 xenograft; after 19 days of treatment): No significant morphologic or structural changes
mouse body weight and death (MDA-MB-468 xenograft; [17]): No significant changes in mouse body weight and death
colony formation (MDA-MB-468 cells [5]): dose-dependently suppressed growth and reduced the number of colonies
autophagy induction (MDA-MB-468 cells [6]): significantly induced autophagy
level of p-BRD4^S492 (p-BRD4^S492 [7]): dose-dependently downregulated
toxicity to the normal breast cell line MCF-10A (MCF-10A cells): did not have obvious toxicity
autophagy induction (MDA-MB-231 cells [8]): significantly induced autophagy
tumor growth inhibition (in words) (MDA-MB-231 xenograft; [16]): dose-dependent tumor growth inhibition
Ki-67 immunohistochemical staining in tumor tissue (MDA-MB-231 xenograft; 25 or 50 mg/kg): significantly inhibit the proliferation
expression of c-Myc and p-AKT^S129 in xenograft tumor tissues (IHC) (MDA-MB-231 xenograft; 25 or 50 mg/kg, compared with control group): significantly reduced
HE staining of heart, liver, spleen, lung, and kidney tissues (MDA-MB-231 xenograft; after 19 days of treatment): No significant morphologic or structural changes
mouse body weight and death (MDA-MB-231 xenograft; [17]): No significant changes in mouse body weight and death
IC50 (CK1): > 10 µM
apoptosis (Annexin-V/PI) (MDA-MB-468 cells [9]): dose-dependently induced apoptosis
thermal stability of BRD4 (CETSA) (BRD4 [10]): improved the thermal stability
colony formation (MDA-MB-231 cells [11]): dose-dependently suppressed growth and reduced the number of colonies
apoptosis (Annexin-V/PI) (MDA-MB-231 cells [12]): dose-dependently induced apoptosis
anticancer activity against compound 1-resistant cells (MDA-MB-231R cells): able to alleviate drug resistance of 1
CL ([13]; iv 1 mg/kg): 57.4 ± 1.3 (mL/min)/kg
time at which the highest concentration was observed ([13]; po 10 mg/kg): 5.14 ± 0.71 h
thermal stability of CK2α (CETSA) (CK2α): improved the thermal stability
level of p-BRD4^S492 (p-BRD4^S492 [14]): dose-dependently downregulated

COc1cc(OC)c2c(=O)[nH]c(-c3ccc(OCC(=O)O)cc3)nc2c1 [Compound 26, 2-(4-(5,7-Dimethoxy-4-oxo-1,4-dihydroquinazolin-2-yl)-phenoxy)acetic Acid]
inhibitory ratio on BRD4 (BRD4 [3]; 10 μM): 63%
inhibitory ratio on CK2 (CK2 [15]): 45%

2-(4-(5,7-Dimethoxy-4-oxo-1,4-dihydroquinazolin-2-yl)-phenoxy)-N-(4-methylpiperazin-1-yl)acetamide [Compound 42g]
IC50 (MDA-MB-231 cells [1]): 12.8 ± 1.72 µM
IC50 (MDA-MB-468 cells [2]): 13.7 ± 0.23 µM

2-(4-(5,7-Dimethoxy-4-oxo-1,4-dihydroquinazolin-2-yl)-phenoxy)-N-morpholinoacetamide [Compound 42a]
IC50 (MDA-MB-231 cells [1]): 14.7 ± 1.55 µM
IC50 (MDA-MB-468 cells [2]): 12.5 ± 0.87 µM
